Experiment: WS12 leaching from lens into PBS packaging solution during autoclave (HPLC)
Assay type: physicochemical
Conditions: standard contact lens sterilization and storage conditions
Procedure: Silicone hydrogel contact lenses were prepared by curing the formulation for stenfilcon A in contact lens molds. The cured stenfilcon A was removed from the molds and extracted by immersing them for 215 minutes in ethanol (EtOH) containing WS12 (Tocris Bioscience) in the loading concentrations shown in Table I. The lenses were removed from the EtOH and washed in DI water for approximately 6 minutes, followed by two exchanges of DI water for approximately 30 minutes each. The lenses were transferred to 6 mL glass vials containing 3 mL phosphate buffered saline at pH 7.5 (0.78 wt. % NaCl, 0.05 wt. % sodium phosphate monobasic, and 0.36 wt. % sodium phosphate dibasic), referred to herein as PBS. The vials were sealed and autoclaved.
Each autoclaved lens was transferred to a vial containing 3 ml EtOH and stored overnight on a 150 rpm shaker at room temperature to extract WS12 from the lens. The EtOH extracts and the PBS in which the lenses were autoclaved were submitted for analysis by HPLC (detection wavelength=250 nm) against calibration standards to determine the average amount of WS12 loaded into each (n=5) and whether the WS12 leaches from the lens during autoclave.

## COc1ccc(NC(=O)C2CC(C)CCC2C(C)C)cc1 (stereo not shown) [WS12, N-(4-Methoxyphenyl)-5-methyl-2-(1-methylethyl)cyclohexanecarboxamide]
  stability of WS12 in hydrogel lens material during sterilization and storage: without degradation or leaching
